# Columns and labels:
# [1] = test system: T47D (PI3Kα-H1047R) cell line; experiment: HTRF phospho-AKT(S473) cell assay in T47D cells; format: cell-based, human; details: Homo sapiens, 2 hours compound incubation
# How it was run: (§1)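 pAKT(S473) in lysates read by HTRF after a 2 h, 37 °C compound exposure (12-point 1:3 series, max 0.5% DMSO). SKBR3 (wild type, top 10 μM) received 70 ng/ml PDGF-BB during the final 15 min; T47D (H1047R, top 5 μM) was unstimulated. IC50 values derived from the dose-response.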
# [2] = test system: SKBR3 (PI3Kα-Wild Type) cell line; experiment: HTRF phospho-AKT(S473) cell assay in SKBR3 cells; format: cell-based, human; details: Homo sapiens, SK-BR-3, 2 hours compound incubation, PDGF-BB stimulated
# How it was run: as §1
# [3] = T47D (PI3Kα-H1047R) cells, HTRF phospho-AKT(S473)
# [4] = SKBR3 (PI3Kα-Wild Type) cells, HTRF phospho-AKT(S473)
# [5] = HTRF phospho-AKT(S473), T47D (PI3Kα-H1047R) cells
# [6] = HTRF phospho-AKT(S473), SKBR3 (PI3Kα-Wild Type) cells
Structure (SMILES),"IC50 [1, 3] [nM]","IC50 [2, 4] [nM]","IC50 [1, 5] [nM]","IC50 [2, 6] [nM]",further results
"Cc1cc([C@@H](C)Nc2ccc(Cl)nc2C(=O)NS(C)(=O)=O)c2nc(-c3cnc(-c4cnn(C)c4)c(Cl)c3)n(C)c(=O)c2c1 [Compound 292, (R)-6-chloro-3-((1-(2-(5-chloro-6-(1-methyl-1H-pyrazol-4-yl)pyridin-3-yl)-3,6-dimethyl-4-oxo-3,4-dihydroquinazolin-8-yl)ethyl)amino)-N-(methylsulfonyl) picolinamide]",< 250,1000 to 5000,,,
"Cc1cc([C@@H](C)Nc2ccc(Cl)nc2C(=O)NS(C)(=O)=O)c2nc(N3C[C@@H]4[C@H](C3)[C@H]4c3ncn(C(C)C)n3)n(C)c(=O)c2c1 [Compound 551, 6-chloro-3-(((R)-1-(2-((1R,5S,6R)-6-(1-isopropyl-1H-1,2,4-triazol-3-yl)-3-azabicyclo[3.1.0]hexan-3-yl)-3,6-dimethyl-4-oxo-3,4-dihydroquinazolin-8-yl)ethyl)amino)-N-(methylsulfonyl) picolinamide]",,,< 250,≥ 5000,
"Cc1cc([C@@H](C)Nc2ccc(Cl)nc2C(=O)NS(C)(=O)=O)c2nc(N3CCN(c4ccnc(C(F)(F)F)n4)CC3)n(C)c(=O)c2c1 [Compound 589, (R)-6-chloro-3-((1-(3,6-dimethyl-4-oxo-2-(4-(2-(trifluoromethyl)pyrimidin-4-yl)piperazin-1-yl)-3,4-dihydroquinazolin-8-yl)ethyl)amino)-N-(methylsulfonyl) picolinamide]",,,250 to 500,≥ 5000,
"Cc1cc([C@@H](C)Nc2ccc(Cl)nc2C(=O)NS(=O)(=O)c2ccc(N(C)C)nc2)c2nc(N3Cc4ccc(F)cc4C3)n(C)c(=O)c2c1 [Compound 757, (R)-6-chloro-N-((6-(dimethylamino)pyridin-3-yl)sulfonyl)-3-((1-(2-(5-fluoroisoindolin-2-yl)-3,6-dimethyl-4-oxo-3,4-dihydroquinazolin-8-yl)ethyl)amino) picolinamide]",,,250 to 500,≥ 5000,
"Cc1cc([C@@H](C)Nc2ccc(Cl)nc2C(=O)NS(C)(=O)=O)c2nc(N3C[C@@H]4[C@H](C3)[C@H]4c3ccc(C)nc3)n(C)c(=O)c2c1 [Compound 449, 6-chloro-3-(((R)-1-(3,6-dimethyl-2-((1R,5S,6S)-6-(6-methylpyridin-3-yl)-3-azabicyclo[3.1.0]hexan-3-yl)-4-oxo-3,4-dihydroquinazolin-8-yl)ethyl)amino)-N-(methylsulfonyl) picolinamide]",,,250 to 500,≥ 5000,
"Cc1cc([C@@H](C)Nc2ccc(Cl)nc2C(=O)NS(C)(=O)=O)c2nc(N3Cc4cn(-c5cccnc5C)nc4C3)n(C)c(=O)c2c1 [Compound 246, (R)-6-chloro-3-((1-(3,6-dimethyl-2-(2-(2-methylpyridin-3-yl)-2,6-dihydropyrrolo[3,4-c]pyrazol-5(4H)-yl)-4-oxo-3,4-dihydroquinazolin-8-yl)ethyl)amino)-N-(methylsulfonyl) picolinamide]",< 250,1000 to 5000,,,
"Cc1cc([C@@H](C)Nc2ccc(Cl)nc2C(=O)NS(C)(=O)=O)c2nc(-c3ccnc(O[C@@H]4CCNCC4(F)F)c3)n(C)c(=O)c2c1 [Compound 808, 6-chloro-3-(((R)-1-(2-(2-(((R)-3,3-difluoropiperidin-4-yl)oxy)pyridin-4-yl)-3,6-dimethyl-4-oxo-3,4-dihydroquinazolin-8-yl)ethyl)amino)-N-(methylsulfonyl) picolinamide]",,,250 to 500,≥ 5000,
"Cc1cc([C@@H](C)Nc2ccc(Cl)nc2C(=O)NS(C)(=O)=O)c2nc(-c3ccc(OC4CCN(CC(F)(F)F)CC4)nc3)n(C)c(=O)c2c1 [Compound 846, (R)-6-chloro-3-((1-(3,6-dimethyl-4-oxo-2-(6-((1-(2,2,2-trifluoroethyl)piperidin-4-yl)oxy)pyridin-3-yl)-3,4-dihydroquinazolin-8-yl)ethyl)amino)-N-(methylsulfonyl) picolinamide]",,,,,"IC50 ([1]; T47D (PI3Kα-H1047R) cell line, phospho-AKT(S473) HTRF): 250 to 500 nM; IC50 ([2]; SKBR3 (PI3Kα-Wild Type) cell line, phospho-AKT(S473) HTRF): ≥ 5000 nM"
"Cc1cc([C@@H](C)Nc2ccc(Cl)nc2C(=O)NS(C)(=O)=O)c2nc(N3C[C@H]4C[C@@H]3CN4c3ccc(N)cn3)n(C)c(=O)c2c1 [Compound 597, 3-(((R)-1-(2-((1R,4R)-5-(5-aminopyridin-2-yl)-2,5-diazabicyclo [2.2.1]heptan-2-yl)-3,6-dimethyl-4-oxo-3,4-dihydroquinazolin-8-yl)ethyl)amino)-6-chloro-N-(methylsulfonyl) picolinamide]",,,1000 to 5000,≥ 5000,
"Cc1cc([C@@H](C)Nc2ccc(Cl)nc2C(=O)NS(C)(=O)=O)c2nc(N3C[C@@H]4[C@H](C3)[C@H]4n3ccccc3=O)n(C)c(=O)c2c1 [Compound 755, 6-chloro-3-(((R)-1-(3,6-dimethyl-4-oxo-2-((1R,5S,6S)-6-(2-oxopyridin-1(2H)-yl)-3-azabicyclo[3.1.0]hexan-3-yl)-3,4-dihydroquinazolin-8-yl)ethyl)amino)-N-(methylsulfonyl) picolinamide]",,,250 to 500,1000 to 5000,

# Continued, in another order:
"IC50 [1, 3] [nM]","IC50 [2, 4] [nM]","IC50 [1, 5] [nM]","IC50 [2, 6] [nM]",Structure (SMILES),further results
250 to 500,≥ 5000,,,"Cc1cc([C@@H](C)Nc2ccc(Cl)nc2C(=O)NS(C)(=O)=O)c2nc(N3CCC(n4nc(C#N)c5ccccc54)CC3)n(C)c(=O)c2c1 [Compound 304, (R)-6-chloro-3-((1-(2-(4-(3-cyano-1H-indazol-1-yl)piperidin-1-yl)-3,6-dimethyl-4-oxo-3,4-dihydroquinazolin-8-yl)ethyl)amino)-N-(methylsulfonyl) picolinamide]",
< 250,1000 to 5000,,,"Cc1cc([C@@H](C)Nc2ccc(Cl)nc2C(=O)NS(C)(=O)=O)c2nc(N3Cc4cn(-c5ccc(C#N)cc5C)nc4C3)n(C)c(=O)c2c1 [Compound 250, (R)-6-chloro-3-((1-(2-(2-(4-cyano-2-methylphenyl)-2,6-dihydropyrrolo[3,4-c]pyrazol-5(4H)-yl)-3,6-dimethyl-4-oxo-3,4-dihydroquinazolin-8-yl)ethyl)amino)-N-(methylsulfonyl) picolinamide]",
< 250,1000 to 5000,,,"Cc1cc([C@@H](C)Nc2ccc(Cl)nc2C(=O)NS(C)(=O)=O)c2nc(N3CCC(c4ncc(C#N)cc4C)CC3)n(C)c(=O)c2c1 [Compound 266, (R)-6-chloro-3-((1-(2-(4-(5-cyano-3-methylpyridin-2-yl)piperidin-1-yl)-3,6-dimethyl-4-oxo-3,4-dihydroquinazolin-8-yl)ethyl)amino)-N-(methylsulfonyl) picolinamide]",
,,250 to 500,1000 to 5000,"Cc1cc([C@@H](C)Nc2ccc(Cl)nc2C(=O)NS(C)(=O)=O)c2nc(N3CC[C@@H](Oc4ccc(F)cn4)C3)n(C)c(=O)c2c1 [Compound 713, 6-chloro-3-(((R)-1-(2-((R)-3-((5-fluoropyridin-2-yl)oxy)pyrrolidin-1-yl)-3,6-dimethyl-4-oxo-3,4-dihydroquinazolin-8-yl)ethyl)amino)-N-(methylsulfonyl) picolinamide]",
250 to 500,1000 to 5000,,,"COc1cncc(C2CCN(c3nc4c([C@@H](C)Nc5ccc(Cl)nc5C(=O)NS(C)(=O)=O)cc(C)cc4c(=O)n3C)CC2)n1 [Compound 400, (R)-6-chloro-3-((1-(2-(4-(6-methoxypyrazin-2-yl)piperidin-1-yl)-3,6-dimethyl-4-oxo-3,4-dihydroquinazolin-8-yl)ethyl)amino)-N-(methylsulfonyl) picolinamide]",
,,250 to 500,≥ 5000,"Cc1cc([C@@H](C)Nc2ccc(Cl)nc2C(=O)NS(C)(=O)=O)c2nc(N3C[C@H]4CC4(c4cnc(C)cn4)C3)n(C)c(=O)c2c1 (relative stereo) [Compound 749, 6-chloro-3-(((R)-1-(3,6-dimethyl-2-((1R*,5S*)-1-(5-methylpyrazin-2-yl)-3-azabicyclo[3.1.0]hexan-3-yl)-4-oxo-3,4-dihydroquinazolin-8-yl)ethyl)amino)-N-(methylsulfonyl) picolinamide]",
,,250 to 500,1000 to 5000,"Cc1cc([C@@H](C)Nc2ccc(Cl)nc2C(=O)NS(C)(=O)=O)c2nc(N3CC[C@H](c4cnc(C)c(C#N)c4)C3)n(C)c(=O)c2c1 (relative stereo) [Compound 656, 6-chloro-3-(((R)-1-(2-((R*)-3-(5-cyano-6-methylpyridin-3-yl)pyrrolidin-1-yl)-3,6-dimethyl-4-oxo-3,4-dihydroquinazolin-8-yl)ethyl)amino)-N-(methylsulfonyl) picolinamide]",
,,< 250,1000 to 5000,"Cc1cc([C@@H](C)Nc2ccc(Cl)nc2C(=O)NS(C)(=O)=O)c2nc(N3CCC(c4ncc(C(F)F)cn4)CC3)n(C)c(=O)c2c1 [Compound 504, (R)-6-chloro-3-((1-(2-(4-(5-(difluoromethyl)pyrimidin-2-yl)piperidin-1-yl)-3,6-dimethyl-4-oxo-3,4-dihydroquinazolin-8-yl)ethyl)amino)-N-(methylsulfonyl) picolinamide]",
< 250,1000 to 5000,,,"Cc1cc([C@@H](C)Nc2ccc(Cl)nc2C(=O)NS(C)(=O)=O)c2nc(C3CCN(c4ccc(C#N)nc4)CC3)n(C)c(=O)c2c1 [Compound 180, (R)-6-chloro-3-((1-(2-(1-(6-cyanopyridin-3-yl)piperidin-4-yl)-3,6-dimethyl-4-oxo-3,4-dihydroquinazolin-8-yl)ethyl)amino)-N-(methylsulfonyl) picolinamide]",
